Results from patent US9075060B2, “Methods for diagnosing oral or oral-pharyngeal cancer” (Technion Research & Development Foundation Limited, priority 2009, dated 2015).

Key:
TSPO [1] = molecular target: T1, TSPO (Homo sapiens, UniProt P30536); assay: [3H]PK 11195 binding to membranes of SCC-25 cells, Scatchard analysis; details: mean±SD, n=7
T1 construct: Assays of [^3H]; host or cells: SCC-25 and SCC-15 human oral cancer cell lines
Procedure: (§1) Assays of [^3H] […] After 80 minute incubation at 4° C., the samples were filtered through Whatman CF/C filters using a vacuum system, washed three times with 4 ml of 5 mM ice cold phosphate buffer and placed in vials containing 4 ml of CytoScint™ (MP Biomedicals, Costa Mesa, Calif.). Radioactivity was counted after 12 hours with a liquid scintillation analyzer. Specific binding was obtained by subtracting non-specific binding from total binding.

TSPO [2] = molecular target: T1, TSPO; assay: [3H]PK 11195 binding to membranes of SCC-15 cells, Scatchard analysis; details: mean±SD, n=16
Procedure: as §1

T1 sequence (P30536 whole entry): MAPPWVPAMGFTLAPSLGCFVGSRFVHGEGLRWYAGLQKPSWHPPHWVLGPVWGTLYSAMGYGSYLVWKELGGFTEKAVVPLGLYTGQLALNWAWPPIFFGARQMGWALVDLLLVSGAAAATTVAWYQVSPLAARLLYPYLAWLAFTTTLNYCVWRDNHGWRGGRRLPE

- Bmax (maximal binding capacity) (TSPO [1]): 3133±643 fmoles/mg protein
- Bmax (maximal binding capacity) (TSPO [2]): 6956±549 fmoles/mg protein
SMILES: CCC(C)N(C)C(=O)c1cc2ccccc2c(-c2ccccc2Cl)n1 (centres unmarked) [[^3H]PK 11195, PK 11195]
